Data from article PMC10449848, “Structural basis of lipid-droplet localization of 17-beta-hydroxysteroid dehydrogenase 13” (Nature Communications, 2023).
“And” between values parts separate entries of the source, which are not always exact repeats. Identical values can stand only once.

Tests used:
[1] = target: T1, human HSD17B13 (Homo sapiens, UniProt Q7Z5P4); test: Thermal shift assay (static light scattering, Tagg), human HSD17B13; format: binding; details: for Tagg, individual measurements: 10.4 µM protein; for thermal stability change: Fig. 6c
T1 construct: human HSD17B13 (residues 2-300, NP_835236.2); 10x His (N); TEV protease site (N); made in house; host or cells: Sf9 (baculovirus)
T1 sequence (Q7Z5P4 2-300): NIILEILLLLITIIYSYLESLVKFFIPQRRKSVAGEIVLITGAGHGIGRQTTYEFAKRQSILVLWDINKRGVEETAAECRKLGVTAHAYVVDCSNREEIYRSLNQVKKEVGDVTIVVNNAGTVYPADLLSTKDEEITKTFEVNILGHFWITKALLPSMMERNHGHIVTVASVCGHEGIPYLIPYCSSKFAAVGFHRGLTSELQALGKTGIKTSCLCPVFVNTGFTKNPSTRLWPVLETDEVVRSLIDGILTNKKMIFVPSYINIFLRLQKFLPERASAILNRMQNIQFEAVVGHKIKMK
From the text: To understand ligand binding, we tested several approaches such as surface plasmon resonance and isothermal calorimetry. […] We next turned to thermal shift assays (TSA) for comparing ligand binding affinities. TSA measures the changes in the thermal denaturation temperature of a protein under different conditions such as the presence compound, changes in buffer conditions, or sequence mutations. There are various readouts including intrinsic fluorescence or light scattering signals. We chose the static light scattering methods to detect the temperatures at which our proteins start to aggregate (Tagg), which are more suitable for membrane proteins that require detergent micelles for stability.
TSA studies were run on the UNit instrument (Unchained Labs, CA, USA). Experiments were run in either 25 mM sodium phosphate pH 7, 150 mM NaCl, 10% glycerol, 1 mM TCEP, 0.05% DDM, + different cofactors (NAD^+, NADH, NADP, NADPH; MilliporeSigma) or 25 mM HEPES pH 7.2, 300 mM NaCl, 0.5 mM TCEP, 0.05% DDM, 10% glycerol, ±500 µM NAD^+, and ±100 µM compound 1 (from 2 mM DMSO stock) or DMSO or 50 mM Hepes pH 7.5, 300 mM NaCl, 0.5 mM TCEP, 0.05% DDM, 500 µM NAD^+, ± 50 µM compounds (from 2 mM stock) or DMSO. Protein aggregation was measured by static light scattering at 266 and 473 nm with a 1 °C/sec ramp rate from 20-80 °C. The data was processed using the UNcle software (Unchained Labs, CA, USA), and temperatures at which the protein started aggregation were recorded as Tagg. Reported Tagg and analysis were based on measurements at 266 nm unless otherwise indicated.

[2] = target: T2, human HSD17B13 (Homo sapiens, UniProt Q7Z5P4); test: Cell assay: HEK cells stably expressing wild-type human HSD17B13, estrone production by LCMS; format: cell-based
T2 construct: expressed in transfected cells
T2 sequence (Q7Z5P4 20-300): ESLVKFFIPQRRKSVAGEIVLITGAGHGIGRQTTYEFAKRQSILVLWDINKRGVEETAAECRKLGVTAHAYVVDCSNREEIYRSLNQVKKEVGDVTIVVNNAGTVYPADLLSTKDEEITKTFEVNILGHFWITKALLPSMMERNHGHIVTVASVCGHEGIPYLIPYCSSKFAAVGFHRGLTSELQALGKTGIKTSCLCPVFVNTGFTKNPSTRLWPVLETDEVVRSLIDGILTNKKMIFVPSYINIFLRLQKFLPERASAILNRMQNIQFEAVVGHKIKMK
Procedure: Cell inhibition potency of test compounds was determined using a whole-cell HEK overexpressing HSD17B13, utilizing a liquid chromatography/mass spectrometry (LCMS) readout.
In this assay HSD17B13 uses NAD^+ as a cofactor during metabolism of β-estradiol, converting NAD^+ to NADH and β-estradiol to estrone. Estrone production is quantified by LCMS using a Sciex API-5500-Electrospray system (AB Sciex LLC, MA, USA), and used as a measure of HSD17B13 enzyme activity.
The amount of product (estrone) was then quantified by LCMS using software provided (Analyst 1.7, Hotfix 3, MultiQuant 3.0.31721.0). Data expressed as product area ratio (PAR) were then normalized to control wells using Activity Base (IDBS). Zero percent effect (ZPE) was defined as PAR generated from uninhibited HSD17B13 (vehicle control).

[3] = target: T1, human HSD17B13; test: HSD17B13 purified protein biochemical enzyme activity assay, NAD(P)H-Glo luciferase readout; details: IC 50 mean, Supplementary Figure 8 source data, unit inferred, uM printed
Procedure: HSD17B13 enzyme inhibition potency of test compounds was determined using a purified protein biochemical enzyme activity assay, using NAD(P)H-Glo luciferase readout (Promega). HSD17B13 enzyme uses the oxidized form of nicotinamide adenine dinucleotide (NAD^+) as a cofactor during metabolism of β-estradiol (substrate) to […] (product), while converting NAD^+ to the reduced form (NADH). The Promega NAD(P)H-Glo™ assay is a homogeneous bioluminescent assay that generates a light signal from biochemical reactions that contain NADH (or nicotinamide adenine dinucleotide phosphate, NADPH). In the presence of NADH (or NADPH), the enzyme Reductase reduces a proluciferin reductase substrate to form luciferin. Luciferin then is quantified using Ultra-Glo™ Recombinant Luciferase (rLuciferase), and the light signal produced is proportional to the amount of NAD(P)H in the sample. […] The reaction was initiated by the addition of 2 µL/well purified HSD17B13 protein (30 nM FAC in assay buffer). […] Detection reagent was incubated in the dark for 1 hour at room temperature before plates were read on the Envision plate reader (Perkin Elmer) using a luminescent protocol. Data expressed as relative luminescent units (RLUs) were then normalized to control wells using Activity Base (IDBS). […]

## O=C(NC[C@]1(O)CC[C@H](COc2ccccc2F)CC1)c1ccc(O)c(F)c1 [Compound 1]
[1]; 100 µM ligand + 500 µM NAD+
  Tagg, individual measurements: 54.6 °C and 55.1 °C (2×) and 54.2 °C
[1]; 100 µM ligand, buffer without NAD+
  Tagg, individual measurements: 41.2 °C and 41.6 °C and 44.6 °C and 45 °C
[1]; 500 uM NAD, 100 µM ligand, Tagg(compound + NAD+) - Tagg(buffer + NAD+)
  deltaTagg: 13.1
[1]; in the absence of cofactor
  thermal stability change: no significant effect
[1]; in the presence of NAD+
  thermal stability change: significant increase in thermal stability
[1]; Fig. 6d, 500 μM NAD+
  binding in TSA: bound human HSD17B13 strongly
[1]; Fig. 6d, 500 μM NAD+, 50 µM compound
  Tagg: 49.1 ± 2.0 °C
[1]; no NAD, 100 µM ligand, vs buffer
  dTagg: 3.033
[2]; HEK cells overexpressing HSD17B13
  activity in cell assay: active
[2]; HEK cells overexpressing HSD17B13, β-estradiol substrate
  IC50: 570 ± 120 nM
[3]
  IC50: 0.18 µM
